Usually Ki stands for a measure of affinity in units of concentration, obtained from inhibition or displacement. One may read the residual activity as the signal under treatment as a percentage of the control signal. One may read the GI50 as the concentration giving 50% growth inhibition. Lower therefore signals more potent growth inhibition.

One experiment concerns the target CDK4/D1 (Homo sapiens, UniProt P11802). The experiment in a line: ADP Glo Kinase assay CDK4/D1. The settings on record: CDK4D1; for remaining activity at 10 µM: compound at 10 μM, read-out: residual activity (%) at 10 μM CDK4D1; for Ki: read-out: CDK inhibition, Ki (μM) CDK4D1. The format is biochemical. An outline of the steps: (§1)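 Other CDKs and further kinases were profiled externally by radiometric assay. In-house ADP Glo assays covered CDK4/D1 and CDK6/D3 (RB-CTF substrate, pH 7.5 Tris buffer with MgCl2, DTT, BSA) and CDK9/T1 (RBER-IRStide substrate), 40 min at 37° C.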
For orientation: In ADP-Glo the light output rises with the ADP produced.

A further experiment deals with CDK6/D3 (Homo sapiens, UniProt Q00534). Briefly: ADP Glo Kinase assay CDK6/D3. The format is biochemical. The settings on record: CDK6D3; for remaining activity at 10 µM: compound at 10 μM, read-out: residual activity (%) at 10 μM CDK6D3; for Ki: read-out: CDK inhibition, Ki (μM) CDK6D3. An outline of the steps:
as §1

The target of a further experiment is CDK9/T1 (Homo sapiens, UniProt P50750). Briefly: ADP Glo Kinase assay CDK9/T1. The format is biochemical. The note with it: CDK9T1; read-out: CDK inhibition, Ki (μM) CDK9T1. The method in brief: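 CDK4/D1 and CDK6/D3 were run in […] Tris pH 7.5, 20 mM MgCl2, 0.4 mM DTT, 0.1 mg/ml BSA with RB-CTF substrate; CDK9/T1 used RBER-IRStide. ATP-started reactions ran 40 min at 37° C, with ADP Glo luminescence read-out. IC50 came from 4-parameter fits; Ki from Km (ATP) and IC50.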
Chain of CDK9/T1 (P50750 whole entry): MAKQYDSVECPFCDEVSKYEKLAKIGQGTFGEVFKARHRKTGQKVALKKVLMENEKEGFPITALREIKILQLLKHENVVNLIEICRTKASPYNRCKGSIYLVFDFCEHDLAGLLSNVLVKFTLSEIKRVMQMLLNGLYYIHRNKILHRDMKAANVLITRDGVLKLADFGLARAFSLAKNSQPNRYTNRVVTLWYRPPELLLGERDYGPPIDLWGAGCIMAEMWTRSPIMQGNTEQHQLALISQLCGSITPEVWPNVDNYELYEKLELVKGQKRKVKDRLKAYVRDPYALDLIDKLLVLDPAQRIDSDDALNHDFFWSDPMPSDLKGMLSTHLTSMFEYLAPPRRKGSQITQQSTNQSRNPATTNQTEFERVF
Chain of CDK9/T1 (O60563 whole entry partner): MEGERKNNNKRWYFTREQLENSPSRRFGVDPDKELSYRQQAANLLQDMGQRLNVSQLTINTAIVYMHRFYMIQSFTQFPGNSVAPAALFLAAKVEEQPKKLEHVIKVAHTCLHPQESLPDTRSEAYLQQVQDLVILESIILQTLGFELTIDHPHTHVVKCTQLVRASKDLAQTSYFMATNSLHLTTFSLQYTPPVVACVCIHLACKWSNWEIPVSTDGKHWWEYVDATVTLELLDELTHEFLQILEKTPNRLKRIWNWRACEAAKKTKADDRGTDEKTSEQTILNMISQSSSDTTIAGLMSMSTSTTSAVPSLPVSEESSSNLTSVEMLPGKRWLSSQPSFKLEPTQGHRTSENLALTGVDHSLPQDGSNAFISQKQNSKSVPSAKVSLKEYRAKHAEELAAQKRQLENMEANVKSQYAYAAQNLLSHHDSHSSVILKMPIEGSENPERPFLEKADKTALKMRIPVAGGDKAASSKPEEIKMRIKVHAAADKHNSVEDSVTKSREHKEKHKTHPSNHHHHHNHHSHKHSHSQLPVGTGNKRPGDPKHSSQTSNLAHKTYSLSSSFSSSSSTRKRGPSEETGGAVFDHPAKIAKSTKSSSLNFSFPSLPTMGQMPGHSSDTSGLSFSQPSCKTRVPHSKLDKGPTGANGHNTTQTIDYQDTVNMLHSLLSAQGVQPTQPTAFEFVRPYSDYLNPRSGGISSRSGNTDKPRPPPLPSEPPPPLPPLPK

For experiment [1], the target named is T1, CDKs and other kinases (Homo sapiens, UniProt P06493).
T1 construct: other: CDK1B; residual activity (%) at 10 μM CDK1B; compound at 10 μM
T1 sequence (P06493 whole entry): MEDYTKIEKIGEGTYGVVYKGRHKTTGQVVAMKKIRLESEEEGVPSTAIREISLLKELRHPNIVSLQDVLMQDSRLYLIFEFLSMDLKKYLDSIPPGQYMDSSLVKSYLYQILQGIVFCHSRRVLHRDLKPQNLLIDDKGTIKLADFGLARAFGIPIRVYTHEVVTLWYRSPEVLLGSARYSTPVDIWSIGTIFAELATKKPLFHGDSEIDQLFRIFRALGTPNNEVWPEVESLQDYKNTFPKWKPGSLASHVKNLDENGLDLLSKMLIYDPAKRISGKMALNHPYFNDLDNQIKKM
The experiment in a line: Radiometric kinase assay (Eurofins Pharma Discovery or Reaction Biology Corporation Kinase Profiler). The note with it: CDK1B; for remaining activity at 10 µM: compound at 10 μM, read-out: residual activity (%) at 10 μM CDK1B; for Ki: read-out: CDK inhibition, Ki (μM) CDK1B. The format is biochemical. An outline of the steps:
as §1

The target of experiment [2] is T2, CDKs and other kinases (Homo sapiens, UniProt P24941).
T2 construct: other: CDK2A; residual activity (%) at 10 μM CDK2A; compound at 10 μM
The experiment is described as above. The format is biochemical. The note with it: CDK2A; for remaining activity at 10 µM: compound at 10 μM, read-out: residual activity (%) at 10 μM CDK2A; for Ki: read-out: CDK inhibition, Ki (μM) CDK2A. An outline of the steps: as §1

Experiment [3] deals with T3, CDKs and other kinases (Homo sapiens, UniProt P50613).
T3 construct: other: CDK7H; residual activity (%) at 10 μM CDK7H; compound at 10 μM
T3 sequence (P50613 whole entry): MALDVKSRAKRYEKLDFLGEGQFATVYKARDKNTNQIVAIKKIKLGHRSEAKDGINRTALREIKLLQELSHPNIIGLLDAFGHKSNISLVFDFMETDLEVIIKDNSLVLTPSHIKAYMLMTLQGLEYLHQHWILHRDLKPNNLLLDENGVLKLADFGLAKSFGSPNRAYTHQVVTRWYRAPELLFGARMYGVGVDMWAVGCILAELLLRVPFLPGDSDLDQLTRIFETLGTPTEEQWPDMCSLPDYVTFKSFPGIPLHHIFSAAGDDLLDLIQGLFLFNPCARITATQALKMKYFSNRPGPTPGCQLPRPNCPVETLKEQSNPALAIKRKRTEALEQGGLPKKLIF
The experiment is described as above. The format is biochemical. The note with it: CDK7H; for remaining activity at 10 µM: compound at 10 μM, read-out: residual activity (%) at 10 μM CDK7H; for Ki: read-out: CDK inhibition, Ki (μM) CDK7H. The method in brief:
as §1

A further experiment has as its system leukemia cell lines. Briefly: Resazurin cell viability assay on leukemia cell lines (72 h growth inhibition, GI50). The note with it: Homo sapiens, MV4-11 cells. The format is cell-based. The method in brief:
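Standard published viability protocols apply here, MTT-based for solid tumour cells and resazurin-based for leukaemia cells, with 50% growth inhibition concentrations derived through non-linear regression.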

Chain of CDK6/D3 (Q00534 whole entry): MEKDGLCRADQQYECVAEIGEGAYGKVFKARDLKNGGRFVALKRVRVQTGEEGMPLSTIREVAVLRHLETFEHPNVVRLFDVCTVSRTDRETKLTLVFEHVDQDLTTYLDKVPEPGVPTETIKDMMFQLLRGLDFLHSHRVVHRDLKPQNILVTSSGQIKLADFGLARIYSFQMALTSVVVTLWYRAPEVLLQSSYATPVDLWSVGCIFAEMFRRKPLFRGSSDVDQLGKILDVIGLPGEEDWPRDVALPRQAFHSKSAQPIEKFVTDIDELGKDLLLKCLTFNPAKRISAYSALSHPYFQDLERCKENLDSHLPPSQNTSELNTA
Chain of CDK6/D3 (P30281 whole entry partner): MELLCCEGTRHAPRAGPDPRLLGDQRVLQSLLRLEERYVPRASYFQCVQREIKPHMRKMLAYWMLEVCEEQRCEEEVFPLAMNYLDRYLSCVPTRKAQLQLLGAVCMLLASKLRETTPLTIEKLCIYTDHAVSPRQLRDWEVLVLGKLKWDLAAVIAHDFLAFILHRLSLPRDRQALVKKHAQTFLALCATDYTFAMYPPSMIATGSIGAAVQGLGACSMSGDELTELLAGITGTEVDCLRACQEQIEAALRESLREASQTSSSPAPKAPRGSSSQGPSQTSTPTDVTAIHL
Chain of CDK4/D1 (P11802 whole entry): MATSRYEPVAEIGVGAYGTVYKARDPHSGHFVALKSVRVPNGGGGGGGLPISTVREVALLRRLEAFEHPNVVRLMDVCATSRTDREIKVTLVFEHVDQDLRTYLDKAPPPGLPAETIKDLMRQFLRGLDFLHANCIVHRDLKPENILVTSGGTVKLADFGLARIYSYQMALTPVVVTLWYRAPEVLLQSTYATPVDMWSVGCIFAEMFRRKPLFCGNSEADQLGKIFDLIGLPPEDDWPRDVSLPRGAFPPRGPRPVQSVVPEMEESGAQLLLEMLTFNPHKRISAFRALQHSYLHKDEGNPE
Chain of CDK4/D1 (P24385 whole entry partner): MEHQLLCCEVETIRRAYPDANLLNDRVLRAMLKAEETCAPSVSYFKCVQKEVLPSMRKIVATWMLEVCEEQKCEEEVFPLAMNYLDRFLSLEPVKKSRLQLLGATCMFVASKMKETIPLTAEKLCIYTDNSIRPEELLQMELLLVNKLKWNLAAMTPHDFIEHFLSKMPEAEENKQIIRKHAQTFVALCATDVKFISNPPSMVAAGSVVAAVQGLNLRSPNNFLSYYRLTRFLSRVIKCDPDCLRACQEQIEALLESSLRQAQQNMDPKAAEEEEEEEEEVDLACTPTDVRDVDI

Turning to `Cc1cnc(N[C@H]2CC[C@H](NC3CCN(C)CC3)CC2)nc1-c1cnc2ccc(-c3ccccc3)cn12` [Compound 90, (1r,4r)-N^1-(5-Methyl-4-(6-phenylimidazo[1,2-a]pyridin-3-yl)pyrimidin-2-yl)-N4-(1-methylpiperidin-4-yl) cyclohexane-1,4-diamine], the remaining activity at 10 µM at CDK4/D1 was determined as 24%; on CDK6/D3, 80%; on CDKs and other kinases [1], 57%; at CDKs and other kinases [2], 44%. The Ki at CDK9/T1 is 0.211 µM. Also, at CDKs and other kinases [3], the residual activity at 10 µM amounted to 295%. Further, it took 0.229 ± 0.015 µM to inhibit growth in the experiment with leukemia cell lines by half (GI50).
`Cc1cnc(N[C@H]2CC[C@@H](N)CC2)nc1-c1cnc2ccc(-c3ccccc3)cn12` [Compound 91, (1s,4s)-N^1-(5-Methyl-4-(6-phenylimidazo[1,2-a]pyridin-3-yl)pyrimidin-2-yl)cyclohexane-1,4-diamine]: the remaining activity at 10 µM at CDK4/D1 was 17%; on CDK6/D3, 41%; at CDKs and other kinases [1], 5%; at CDKs and other kinases [2] it was 7%; on CDKs and other kinases [3], 19%. Also, at CDK9/T1, the Ki amounted to 0.082 µM. Also, the GI50 in the experiment with leukemia cell lines was found to be 0.014 ± 0.007 µM.
With `Cc1cnc(N[C@H]2CC[C@@H](N)CC2)nc1-c1cnc2ccc(Nc3cccnc3)cn12` [Compound 92, (1s,4s)-N^1-(5-Methyl-4-(6-(pyridin-3-ylamino)imidazo [1,2-a]pyridin-3-yl)pyrimidin-2-yl)cyclohexane-1,4-diamine], the remaining activity at 10 µM was 37% on CDK4/D1; 58% at CDK6/D3; 22% at CDKs and other kinases [1]; 27% at CDKs and other kinases [2]; 27% at CDKs and other kinases [3]. Further, the Ki on CDK9/T1 was determined as 0.089 µM. In addition, the GI50 with leukemia cell lines was found to be 0.179 ± 0.061 µM.
`Cc1cnc(N[C@H]2CC[C@@H](N)CC2)nc1-c1cnc2ccc(Nc3cncnc3)cn12` [Compound 93, (1s,4s)-N^1-(5-Methyl-4-(6-(pyrimidin-5-ylamino)imidazo [1,2-a]pyridin-3-yl)pyrimidin-2-yl)cyclohexane-1,4-diamine]: the remaining activity at 10 µM on CDK4/D1 is 28%; on CDK6/D3, 69%; on CDKs and other kinases [1] it was 35%; on CDKs and other kinases [2] it was 31%; at CDKs and other kinases [3], 49%. In addition, the Ki on CDK9/T1 is 0.071 µM. The same compound displayed a GI50 in the experiment on leukemia cell lines of 0.336 ± 0.082 µM.
For the compound `Cc1cnc(NC2CCCC(N)C2)nc1-c1cnc2ccc(-c3ccccc3)cn12` (stereo not drawn) [Compound 94, N^1-(5-Methyl-4-(6-phenylimidazo[1,2-a]pyridin-3-yl)pyrimidin-2-yl)cyclohexane-1,3-diamine], the remaining activity at 10 µM came out at 25% at CDK4/D1; 45% on CDK6/D3; 20% at CDKs and other kinases [1]; 12% at CDKs and other kinases [2]; 10% on CDKs and other kinases [3]. Also, the Ki at CDK9/T1 was 0.388 µM. The same compound returned a 50% growth inhibitory concentration (GI50) with leukemia cell lines of 0.748 ± 0.063 µM.
For the compound `Cc1cnc(NC2CCCC(N)C2)nc1-c1cnc2ccc(Nc3cccnc3)cn12` (stereo not drawn) [Compound 95, N^1-(5-Methyl-4-(6-(pyridin-3-ylamino)imidazo[1,2-a]pyridin-3-yl)pyrimidin-2-yl)cyclohexane-1,3-diamine], the remaining activity at 10 µM was found to be 76% at CDK4/D1; 76% at CDK6/D3; 59% on CDKs and other kinases [1]; 28% at CDKs and other kinases [2]; 33% on CDKs and other kinases [3]. Further, the Ki on CDK9/T1 amounted to 0.198 µM. The GI50 with leukemia cell lines came out at 0.646 ± 0.129 µM.
`Cc1cnc(NC2CCCC(N)C2)nc1-c1cnc2ccc(Nc3cncnc3)cn12` (stereo not drawn) [Compound 96, N^1-(5-Methyl-4-(6-(pyrimidin-5-ylamino)imidazo[1,2-a]pyridin-3-yl)pyrimidin-2-yl)cyclohexane-1,3-diamine]: the remaining activity at 10 µM at CDK4/D1 is 49%; at CDK6/D3, 90%; at CDKs and other kinases [1], 63%; on CDKs and other kinases [2], 37%; at CDKs and other kinases [3] it was 63%. Further, on CDK9/T1, the inhibitory constant (Ki) was 0.193 µM. This compound returned a GI50 with leukemia cell lines of more than 10 µM.
For `Cc1cnc(NC2CCC(N(C)C)CC2)nc1-c1cnc2ccc(-c3ccccc3)cn12` (stereo not drawn) [Compound 97, N^1,N^1-Dimethyl-N^4-(5-methyl-4-(6-phenylimidazo[1,2-^a]pyridin-3-yl)pyrimidin-2-yl)cyclohexane-1,4-diamine], the remaining activity at 10 µM stood at 54% at CDK4/D1; 39% at CDK6/D3; 28% at CDKs and other kinases [1]; 32% at CDKs and other kinases [2]; 9% on CDKs and other kinases [3]. For the same compound, on CDK9/T1, the Ki turned out to be 0.016 µM. Growth in the experiment on leukemia cell lines was halved (GI50) at 0.058 ± 0.002 µM.
In the case of `Cc1cnc(NC2CCC(N(C)C)CC2)nc1-c1cnc2ccc(Nc3cccnc3)cn12` (stereo not drawn) [Compound 98, N^1,N^1-Dimethyl-N^4-(5-Methyl-4-(6-(pyridin-3-ylamino)imidazo[1,2-a]pyridin-3-yl)pyrimidin-2-yl)cyclohexane-1,4-diamine], the inhibitory constant (Ki) amounted to 0.78 µM on CDK4/D1; 0.53 µM on CDK6/D3; 0.004 µM at CDK9/T1; 1.5 µM at CDKs and other kinases [1]; 0.31 µM at CDKs and other kinases [2]; 1.67 µM on CDKs and other kinases [3]. The same compound yielded a GI50 with leukemia cell lines of 0.153 ± 0.021 µM.
Consider `Cc1cnc(NC2CCC(N(C)C)CC2)nc1-c1cnc2ccc(Nc3cncnc3)cn12` (stereo not drawn) [Compound 99, N^1,N^1-dimethyl-N^4-(5-Methyl-4-(6-(pyrimidin-5-ylamino)imidazo[1,2-a]pyridin-3-yl)pyrimidin-2-yl)cyclohexane-1,4-diamine], for which the Ki on CDK4/D1 came to 1.16 µM; on CDK6/D3, 0.51 µM; at CDK9/T1, 0.006 µM; on CDKs and other kinases [1], 1.66 µM; on CDKs and other kinases [2] it was 0.48 µM; at CDKs and other kinases [3] it was 3.1 µM. The compound further gave a GI50 in the experiment on leukemia cell lines of 0.265 ± 0.034 µM.
As to `Cc1cnc(N[C@]23C[C@@]4(C)C[C@](C)(C[C@](O)(C4)C2)C3)nc1-c1cnc2ccc(-c3ccccc3)cn12` [Compound 100, (1s,3R,5S,7r)-3,5-Dimethyl-7-((5-methyl-4-(6-phenylimidazo[1,2-a]pyridin-3-yl)pyrimidin-2-yl)amino)adamantan-1-ol], the remaining activity at 10 µM was 96% at CDK4/D1; 84% at CDK6/D3; 87% at CDKs and other kinases [1]; 79% at CDKs and other kinases [2]; 98% on CDKs and other kinases [3]. Also, the inhibitory constant (Ki) at CDK9/T1 is more than 5 µM. Besides, the GI50 in the experiment on leukemia cell lines is more than 10 µM.
As for `Cc1cnc(N[C@]23C[C@@]4(C)C[C@](C)(C[C@](O)(C4)C2)C3)nc1-c1cnc2ccc(Nc3cccnc3)cn12` [Compound 101, (1s,3R,5S,7r)-3,5-Dimethyl-7-((5-methyl-4-(6-(pyridin-3-ylamino)imidazo[1,2-a]pyridin-3-yl)pyrimidin-2-yl)amino)adamantan-1-ol], the remaining activity at 10 µM worked out at 97% at CDK4/D1; 100% on CDK6/D3; 60% on CDKs and other kinases [1]; 41% on CDKs and other kinases [2]; 85% on CDKs and other kinases [3]. Besides, the Ki at CDK9/T1 was determined as 0.561 µM. This compound showed a GI50 in the experiment with leukemia cell lines of more than 10 µM.

Source of the values: patent US11111245B2, “Derivatives of N-cycloalkyl/heterocycloalkyl-4-(imidazo[1,2-a]pyridine)pyrimidin-2-amine as therapeutic agents” (Aucentra Therapeutics Pty Ltd, priority 2017, dated 2021).
